Legend:
Test in all cases: Kirby-Bauer Test (Zone of Inhibition), agar diffusion
Assay type in all cases: cell-based
[1] = test system: Staphylococcus aureus (ATCC 6538)
Description: (§1) Kirby-Bauer Test (Zone of Inhibition):
(§2) The Kirby-Bauer Test is also known as Agar Diffusion Test and can be used for determination of antimicrobial activity in combination with diffusion properties. […] A suspension of the bacterial or fungal strain of interest is spread evenly over the face of a sterile agar plate. The antimicrobial test substrate (preferential liquid aggregation state) is applied to the center of the agar plate onto a small filter paper. The agar plate is incubated for a defined time at a temperature suitable for the test microorganisms. If the test substrate leaches from the filter paper into the agar and it further contains antimicrobial activity, a zone of inhibition is formed around the filter paper.

[2] = test system: Exophiala dermatitidis (isolate)
Description: as §1, §2

[3] = test system: Aspergillus brasiliensis (ATCC 16404)
Description: as §1, §2

[4] = dilution ratio 1:10, maximum 45 mm
[5] = dilution ratio 1:100, maximum 45 mm

Cn1ccnc1 [1-methyl-1H-imidazole]
Zone of Inhibition [1, 4]: 0.0 mm | Zone of Inhibition [1, 5]: 0.0 mm | Zone of Inhibition ([1]; undiluted, maximum 45 mm): 6.5 mm | Zone of Inhibition [2, 4]: 0.0 mm | Zone of Inhibition [2, 5]: 0.0 mm | Zone of Inhibition ([2]; undiluted, maximum 45 mm): 12.3 mm | Zone of Inhibition [3, 4]: 0.0 mm | Zone of Inhibition [3, 5]: 0.0 mm | Zone of Inhibition ([3]; undiluted, maximum 45 mm): 3.5 mm

c1ccncc1 [Pyridine]
Zone of Inhibition [1, 4]: 0.0 mm | Zone of Inhibition [1, 5]: 0.0 mm | Zone of Inhibition ([1]; undiluted, maximum 45 mm): 1.0 mm | Zone of Inhibition [2, 4]: 0.0 mm | Zone of Inhibition [2, 5]: 0.0 mm | Zone of Inhibition ([2]; undiluted, maximum 45 mm): 1.0 mm | Zone of Inhibition [3, 4]: 0.0 mm | Zone of Inhibition [3, 5]: 0.0 mm | Zone of Inhibition ([3]; undiluted, maximum 45 mm): 0.0 mm

CCCCn1ccnc1 [1-Butyl-1H-imidazole]
Zone of Inhibition ([1]; undiluted, maximum 45 mm): 11.0 mm | Zone of Inhibition ([2]; undiluted, maximum 45 mm): 15.0 mm | Zone of Inhibition ([3]; undiluted, maximum 45 mm): 5.0 mm
